Measurements taken from patent US8563738B2, “Ligands for copper-catalyzed azide-alkyne cycloaddition reactions” (The Scripps Research Institute, priority 2007, dated 2013).

Columns and labels:
[1] = Second-order rate constants of CuAAC reaction by LC-MS of quenched aliquots; conditions: for relative catalytic rate (second-order specific activity): ligand:Cu 2:1, 0.1 mM Cu, 1-2 mM substrates, 4:1 DMSO:aqueous buffer, sodium ascorbate; for change in rate with pH: pH of the aqueous component raised from 7 to 8
Protocol: The relative effectiveness of Cu-ligand complexes was evaluated on the reaction between phenylacetylene and benzyl azide in 4:1 DMSO:aqueous buffer containing sodium ascorbate as reducing agent, which has served as the standard reaction in previous mechanistic studies (Rodionov, V. O.; et al. Angew. Chem. Int. Ed. 2005, 44, 2210-2215). Ligand:Cu ratios are used herein to describe the amounts of each component added, and designate mixtures of ligands and copper ions according to those ratios for convenience. However, it must be emphasized that the active catalysts are not necessarily composed of those same ratios of ligand and metal as are placed in the reaction vessel. The equilibria that govern the composition of these catalysts are discussed below, and their study will be the subject of a separate publication.
Absolute rates were determined under relatively dilute conditions (1-2 mM in substrates), which were required to slow the reactions enough so that aliquots could be reliably taken over a substantial fraction of the completion curve. Each aliquot was immediately quenched and the amount of product formed monitored by quantitative LC-MS against an internal standard. In this way, the clean conversion to triazole was verified in each case, information that is not available by following the disappearance of azide or alkyne by infrared spectroscopy. Plots of product concentrations vs. time fitted very well to second-order kinetics over at least 70% of the reaction (FIG. 2A). […] For this reason, comparisons were made between second-order specific activities (rate constants determined at a standard Cu concentration of 0.1 mM) for catalysts composed of 2:1 mixtures of ligands and Cu(I), in the presence of excess ascorbate relative to Cu.
Reagent stock solutions were freshly prepared before use. In a typical experiment, reactions were set up in the first column of a deep-well polypropylene microtiter plate (2.5 mL well volume). 100 μL of 30% H2O2 and 100 μL of ethanol were dispensed into all other wells.
The reactions were started by the addition of the final component (typically CuSO4 solution). Aliquots of 100 μL were taken at 1-5 minute intervals from the reaction wells with a multichannel pipetman, and transferred to the subsequent columns of wells for quenching. After the desired number of aliquots have been quenched in this fashion, the contents of the plate were transferred to a standard polystyrene 96-well plate for analysis.
LC-MS analysis was performed on an Agilent 1100 (G1946D) instrument, equipped with a 35 mm Agilent ZORBAX® 3.5μ or 1.8μ SB-C18 column. The elution solvent for the detection of 1-benzyl-4-phenyl-1,2,3-triazole was 55:45 H2O:CH3CN, with 0.5% TFA. Analysis of the other triazole products required a solvent gradient (typically from 50:50 to 25:75 H2O:CH3CN, 0.5% TFA over the course of 4-5 minutes). Detection was performed in single ion mode (SIM), which typically allowed for quantitative triazole detection down to 0.1 μM. 1-benzyl-4-phenyl-1,2,3-triazole-d7 was used as internal reference for all experiments.
Equations (2) and (3) were used to find the value of k (kobs) that gives the best fit curve to the experimental data of [P] vs. time.
FIG. 2 summarizes the rate data. Note that the rate constants obtained here are really specific activities at 0.10 mM Cu catalyst concentration. Very similar results were obtained at pH 8 in the presence of 180 mM vs. 10 mM HEPES buffer.
FIG. 2B. Conditions: 1 mM BnN3, 2 mM PhCCH, 0.1 mM CuSO4, 0.2 mM ligand, 4:1 DMSO:HEPES (180 mM), 25 mM NaAsc; pH verified with meter after ascorbate addition. The dots mark observed data points; the solid line is the best second-order fit; an initial “burst” of catalytic activity was not counted in the reported rate constants. Experimental error in rate constants upon repeat measurement is <15% (usually ca. 10%), except where noted.
FIG. 2C. […]

[2] = Ligand screening by reaction calorimetry (peak reaction power); conditions: high reactant concentrations, 1% Cu, 4:1 DMSO:aqueous, 65° C.
Source text: Reaction calorimetry was used to evaluate the relative merits of various ligands under practical conditions of organic synthesis, e.g., involving high concentrations of azide and alkyne reagents and low loadings of catalyst. After correction for instrumental heat transfer parameters, thermograms provide a direct real-time measure of reaction rate (power output); integration gives the overall time-vs.-completion curve. […] All such measurements were made in the same 4:1 DMSO:aqueous solvent as before, but at 65° C. rather than room temperature, in order to keep the product triazole in solution at the higher concentrations used.
Calorimetry was performed in an Omnical INSIGHT® 10-channel reaction calorimeter using 40 mL glass vials. In a typical run all the reaction components but one were introduced into the vials inside an inert atmosphere glovebox, and vials were sealed with septum caps. The last reaction component to be added was placed in a Hamilton gastight syringe. The vials and syringes were then allowed to equilibrate inside the preheated instrument (65° C.) for 30 minutes. The reaction was started in all vials by depressing all of the syringes simultaneously. Two vials out of ten were charged only with solvent to obtain readings allowing for compensation for the heat of mixing. The thermograms registered in these two channels upon addition of the last component were used to construct the baseline for the other 8 channels.
Since heat is not transferred to the instrument sensor instantaneously, the thermogram registered by the instrument is dependent on the characteristics of the instrument and reaction vessel. Correction for these extraneous factors must be applied to the recorded thermograms to obtain instrument-independent data (Rosner, T.; et al. J. Am. Chem. Soc. 2001, 123, 1848-1855; Liu, J.-S.; et al. Thermochimica Acta 1994, 236, 113-122). The appropriate dynamic correction function is built into the instrument operating software. Use of vendor supplied software produces the same result as manual correction.
By the same token, catalysts such as Cu.1 that give observable, but not very strong, calorimetry signals cannot be fully analyzed by converting thermograms to completion curves, because a significant amount of the total energy output is lost below the detection threshold of the instrument. TBTA (1) falls into this category, classified as “moderate” ligands. […] However, peak power values (i.e., maximum reaction rate) provided a reproducible relative measure of relative catalytic efficiency.
Ligands were screened under the following conditions: 250 mM benzyl azide, 454 mM phenylacetylene, 2 mM CuSO4, 4 mM ligand, 25 mM sodium ascorbate. Phenylacetylene was the last component added. Initial screening was performed with at least two independent trials for each ligand. Candidates showing promising activity were then examined with at least three independent trials to obtain reliable estimations of experimental error.

[3] = Second-order rate constants of CuAAC reaction by LC-MS of quenched aliquots; conditions: 4:1 DMSO:buffer, Tris buffer over a standard range of concentrations
[4] = Solubility of ligands; conditions: for solubility in common organic solvents: including DMSO

Row | Compound | relative catalytic rate (second-order specific activity) [1] | relative catalytic activity by calorimetry [2] | also measured
1 | c1ccc(CN(Cc2ccccn2)Cc2ccccn2)nc1 [(Py)3, tris(pyridylmethyl)amine, reference compound] | slower than those observed for the “ligand-free” case | one of the best ligands in calorimetry screening | –
2 | c1ccc2[nH]c(CNCc3nc4ccccc4[nH]3)nc2c1 [H(BimH)2, Bis-(2-benzimidazolylmethyl)amine, reference compound] | slower than those observed for the “ligand-free” case | – | –
3 | O=C([O-])CCCCn1c(CN(Cc2nc3ccccc3n2CCCCC(=O)[O-])Cc2nc3ccccc3n2CCCCC(=O)[O-])nc2ccccc21.[K+].[K+].[K+] [(BimC4A)3, Potassium 5,5′,5″-(2,2′,2″-nitrilotris(methylene)tris(1H-benzimidazole-2,1-diyl))tripentanoate] | noticeably better catalyst performance | best in the class | relative catalytic rate (second-order specific activity) ([1]; listed as (BimC4A)): strong rate acceleration through a wide pH range
4 | O=C([O-])CCCCCn1c(CN(Cc2nc3ccccc3n2CCCCCC(=O)[O-])Cc2nc3ccccc3n2CCCCCC(=O)[O-])nc2ccccc21.[K+].[K+].[K+] [(BimC5A)3] | noticeably better catalyst performance | best in the class | –
5 | c1ccc2[nH]c(CN(Cc3nc4ccccc4[nH]3)Cc3nc4ccccc4s3)nc2c1 [(Bth)(BimH)2, N,N-bis((1H-benzimidazol-2-yl)methyl)-1-(benzothiazol-2-yl)methanamine] | – | largely inactive | –
6 | O=C([O-])CCCn1c(CN(Cc2nc3ccccc3n2CCCC(=O)[O-])Cc2nc3ccccc3n2CCCC(=O)[O-])nc2ccccc21.[K+].[K+].[K+] [(BimC3A)3] | noticeably better catalyst performance | best in the class | –
7 | CC(C)(C)OC(=O)Cn1c(CN(Cc2nc3ccccc3n2CC(=O)OC(C)(C)C)Cc2nc3ccccc3n2CC(=O)OC(C)(C)C)nc2ccccc21 [(BimC1E′)3] | performing as well as the parent structure (BimH)3 | – | –
8 | Cc1cc(C)c(-n2ccn(-c3c(C)cc(C)cc3C)[c]2=[Cu][Cl])c(C)c1 [Ligand S1, reference compound] | – | no detectable exothermic heat flow | –
9 | c1ccc2[nH]c(CN(Cc3nc4ccccc4[nH]3)Cc3nc4ccccc4[nH]3)nc2c1 [(BimH)3, Tris-(2-benzimidazolylmethyl)amine, reference compound] | – | – | effect of Tris buffer on rate [3]: slowed significantly; change in rate with pH [1]: more sensitive
10 | c1ccc2[nH]c(CN(Cc3nc4ccccc4s3)Cc3nc4ccccc4s3)nc2c1 [(Bth)2(BimH), N-((1H-benzimidazol-2-yl)methyl)-1-(benzothiazol-2-yl)-N-(benzothiazol-2-ylmethyl)methanamine] | best ligand in the series | largely inactive | effect of HEPES buffer on rate ([1]; 180 mM HEPES): faster turnover; change in rate with pH [1]: very little change in rate
11 | Cn1c(CN(Cc2nc3ccccc3n2C)Cc2nc3ccccc3n2C)nc2ccccc21 [(BimC1H)3] | performing as well as the parent structure (BimH)3 | – | solubility in common organic solvents [4]: unusually low solubility
12 | c1ccc2sc(CN(Cc3nc4ccccc4s3)Cc3nc4ccccc4s3)nc2c1 [(Bth)3, Tris-(2-benzothiazolylmethyl)amine] | – | largely inactive | change in rate with pH [1]: more sensitive; solubility in common organic solvents [4]: unusually low solubility
13 | O=S(=O)(O)c1ccc2[nH]c(CN(Cc3nc4cc(S(=O)(=O)O)ccc4[nH]3)Cc3nc4cc(S(=O)(=O)O)ccc4[nH]3)nc2c1 [(BimH/S)3, reference compound] | strong rate acceleration through a wide pH range | – | –
14 | CCOC(=O)Cn1c(CN(Cc2nc3ccccc3n2CC(=O)OCC)Cc2nc3ccccc3n2CC(=O)OCC)nc2ccccc21 [(BimC1E)3, Triethyl 2,2′,2″-(2,2′,2″-nitrilotris(methylene)tris(1H-benzimidazole-2,1-diyl)) triethanoate] | performing as well as the parent structure (BimH)3 | – | –
15 | O=C([O-])Cn1c(CN(Cc2nc3ccccc3n2CC(=O)[O-])Cc2nc3ccccc3n2CC(=O)[O-])nc2ccccc21.[K+].[K+].[K+] [(BimC1A)3] | one of the least effective catalysts in the series | – | water solubility ([4]; water): water-soluble
16 | Cn1ccn(-c2cccc(-n3ccn(C)[c]3=[Cu][Cl])n2)[c]1=[Cu][Cl] [Ligand S3, reference compound] | – | in the range of TBTA (1) | –
17 | CCOC(=O)CCCCn1c(CN(Cc2nc3ccccc3n2CCCCC(=O)OCC)Cc2nc3ccccc3n2CCCCC(=O)OCC)nc2ccccc21 [(BimC4E)3, Triethyl 5,5′,5″-(2,2′,2″-nitrilotris(methylene)tris(1H-benzimidazole-2,1-diyl))tripentanoate] | just as active as its hydrolyzed (carboxylate) analog | – | –
